The experiment has as its system CEM cells HIV-1 protection, formazan growth assay. Nature of the experiment: NCI AIDS Antiviral Assay. As to conditions: for IC50: measured here: growth of uninfected CEM cells. In short, it runs like this: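 Soluble formazan readout of cell growth; CEM cells ± HIV-1; 5 drug concs. ≥50% protection → retest; ≥50% again = moderately active; reproducible 100% = confirmed active.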

Usually EC50 stands for the concentration at which the effect is half-maximal. What is called IC50 is the midpoint of a concentration-inhibition curve. Lower therefore signals higher potency.

“And” between values parts separate entries of the source, which are not always exact repeats. Identical values can stand only once. The source made the active and inactive calls.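 The calls were made as follows: active = compounds giving half or more protection of infected cells from virus-caused growth loss, again on retest; inactive = the rest.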 Where a SMILES comes first, the peptide text is derived from it. [ ]: non-standard residue; d: D form. Hpg = N[CH](C(=O)O)c1ccc(O)cc1

For the compound `COC1C=CC(C(=O)[N+]2=Cc3[nH]c4ccccc4c3CC2)O1` (stereo not given), the EC50 was over 251 µM and the half-maximal inhibitory concentration (IC50) came to 85.1 µM. As for `CN(C)c1ccc(C(C=C2c3ccccc3Sc3ccccc32)=C(C#N)C#N)cc1`, the result was inactive. In the case of `CC(C)CC(N)C(=O)NC(C(N)=O)c1ccc(O)cc1` (stereo not given) (H-Leu-[Hpg]-NH2; configuration not given here), the EC50 was over 200 µM and the IC50 was over 200 µM. `CCOC(=O)c1nc2ccccc2nc1NCc1ccc(Cl)cc1Cl`: the EC50 is over 100 µM and the concentration for half-maximal inhibition (IC50) was 72.4 µM.

As for `CN(C)c1ccc(/C=C2\CCCCCC2=O)cc1`, the EC50 is over 200 µM and the IC50 stood at 26.9 µM. For `N#Cc1c(-c2ccccc2)cc(-c2ccccc2)n(C2OC(CO)C(O)C(O)C2O)c1=S` (stereo not given), the EC50 is over 200 µM; the IC50 was 15.1 µM and 26.9 µM. With `CC(=O)NNc1nc(C)c(C(=O)NNC(=O)C(=O)Nc2c([N+](=O)[O-])ccc(C)c2C)s1`, the EC50 was over 209 µM and the half-maximal inhibitory concentration (IC50) worked out at 107 µM. On the same counts, the results for `c1ccc2c(CC[n+]3cccc(C4OCCO4)c3)c[nH]c2c1` are over 661 µM and 110 µM. On the same counts, the results for `O=C(NNC(=S)Nc1ccc(Cl)cc1)C12CC3CC(CC(C3)C1)C2` are over 200 µM and 6.61 µM. As to `COc1cccc(C2C(C(=O)O)=C(CO)Oc3cc4c(cc32)OCO4)c1OC` (stereo not given), the outcome was inactive. On to `CC(C)(C)C(=O)OC12/C(=N/O)CCCCCC1c1ccccc12` (stereo not given), for which the EC50 was over 200 µM and the half-maximal inhibitory concentration (IC50) was determined as 37.2 µM. Take `O=C(/C=C(\O)c1ccc(Cl)cc1)C(=O)NN=C(c1ccccc1)c1ccccc1`: the EC50 is over 200 µM and the IC50 stood at 16.6 µM.

`COc1ccc(C(=O)C2CCC(C(=O)O)C2)cc1` (stereo not given): the outcome was inactive. Regarding `Cc1cccc(NC(=O)/C(=N\N)C(c2cnc3ccc([N+](=O)[O-])cc3n2)[N+](=O)[O-])c1C` (stereo not given), the EC50 is over 85.1 µM and the 50% inhibitory concentration (IC50) came out at 66.1 µM. The like results for `CCOC(=O)C(C(=O)OCC)P(=S)(S)c1ccccc1` (stereo not given) were, in that order, over 4370 µM and over 4370 µM.

As to `CCOc1cc(C2SCC(=O)N2c2ccc(Oc3ccc(Cl)cc3)c(Cl)c2)ccc1O` (stereo not given), the EC50 is over 200 µM and the half-inhibitory concentration (IC50) worked out at 27.5 µM. Consider `COCc1cc2c(cc1/C(=C/[N+](=O)[O-])CS(=O)(=O)c1ccccc1)OCO2`, for which the EC50 was over 200 µM and the IC50 came out at 102 µM.

For the compound `Cc1cccc(C(O)c2ccccn2)c1O` (stereo not given), the EC50 is over 200 µM and the IC50 is over 200 µM.

For `CCOC(=O)c1ccc(N2C(=O)Cc3ccccc3C2=O)cc1`, the result was inactive. `COC(=O)C1(C)OC(C)=NC1(C(=O)OC)C(=O)OC` (stereo not given): the EC50 was over 200 µM and the concentration for half-maximal inhibition (IC50) is over 200 µM. As to `O=C1c2ccccc2C(=O)c2c1cccc2-n1nnc2cc(Cl)c(Cl)cc21`, the result was inactive. `CC(C)(C)[Si](C)(C)OCC1OC(n2cc(I)c(N)nc2=O)C(O[Si](C)(C)C(C)(C)C)C1O[Si](C)(C)C(C)(C)C` (stereo not given): the EC50 was over 200 µM and the IC50 was 6.76 µM. As for `CN(C)CCN(C)CC(O)CO` (stereo not given), the result was inactive. As for `O=C(Nc1ccc(O)cc1)C(Cl)(Cl)Cl`, the EC50 is over 200 µM and the half-maximal inhibitory concentration (IC50) came out at 39.8 µM. The like results for `CC(=O)OC1(C)C=C/C(=N\S(=O)(=O)c2ccc(C)cc2)c2ccccc21` (stereo not given) were, in that order, over 200 µM and 9.33 µM.

Turning to `CC1C2C=CC1C(c1c3ccc(=O)c(O)c-3oc3c(O)c(O)ccc13)C2C(=O)O` (stereo not given), the EC50 is 2.04 µM and the 50% inhibitory concentration (IC50) was over 200 µM. The like results for `Nc1nc(Cl)c(C=O)c(NCC2(CO)CCC2)n1` were, in that order, over 200 µM and 2.88 µM.

For `C/C1=C\CC[C@@]2(C)O[C@@H]2[C@H]2OC(=O)C(C)C2C[C@H]1O` (stereo not given in full), the EC50 is over 200 µM and the IC50 was over 200 µM.

Turning to `COc1ccc2c(c1)[n+](=O)c(C(=O)C/C(=N/NC(=O)C[N+](C)(C)C)C(=O)Nc1cccc(C)c1C)c(C)n2O`, the EC50 is over 6.31 µM and the IC50 is over 6.31 µM. Take `NS(=O)(=O)c1ccc(N=Cc2ccccc2O)cc1`: the EC50 is over 200 µM and the half-inhibitory concentration (IC50) was over 200 µM. Consider `[N-]=[N+]=NC1C2CC3C4CC5CC3[C@H](C2)C(C5)C41` (stereo not given in full), for which the EC50 is over 81.3 µM and the IC50 is over 81.3 µM.

Consider `CCC1(CC)C(=O)NN(C(=O)c2ccc(Cl)cc2)C1=O`, for which the EC50 is over 200 µM and the IC50 is over 200 µM.

For the compound `COc1ccc2nc(/C(N)=C\C#N)ccc2c1`, the EC50 was over 200 µM and the half-maximal inhibitory concentration (IC50) was found to be 41.7 µM. The like results for `COc1cc2c3c(c1)ncn3C(=O)C(c1ccccc1)S2` (stereo not given) were, in that order, over 200 µM and 87.1 µM.

On to `O=C1C2C3SC(c4cc5ccccc5cc43)C2C(=O)N1c1ccccc1` (stereo not given), for which the result was inactive. For `CCCCCCCCCCNCCSSc1ccccc1`, the EC50 is over 200 µM and the half-maximal inhibitory concentration (IC50) came to 4.27 µM.

`O=C(Nc1ccc(-c2ccccn2)oc1=O)c1ccccc1`: the EC50 was over 200 µM and the 50% inhibitory concentration (IC50) is over 200 µM. In the case of `C=C(CO)[C@H]1Oc2ccc(C(C)=O)cc2[C@@H]1O`, the EC50 is over 200 µM and the concentration for half-maximal inhibition (IC50) was over 200 µM. Regarding `CC1OC(c2ccccc2)=CC(OCc2ccccc2)[C@H]1OCc1ccccc1` (stereo not given in full), the EC50 is over 200 µM and the IC50 stood at 91.2 µM. On the same counts, the results for `COC(=O)c1ccccc1C1CN=NC12Cc1c(ccc(C)c1C)C2=O` (stereo not given) are over 151 µM and over 151 µM. The like results for `OCCCN1CCCC12CCCCC2` were, in that order, over 200 µM and over 200 µM. The like results for `COc1ccc(-c2cc3cc(Cl)cc(Cl)c3oc2=O)cc1OC` were, in that order, over 200 µM and 186 µM. Consider `CC1=Nc2ccc([N+](=O)[O-])cc2N=C(C)C1`, for which the EC50 was over 200 µM; the IC50 was > 200 µM and 126 µM. Consider `N#Cc1cnn2ccn(C3OC(COC(=O)c4ccccc4)C(OC(=O)c4ccccc4)C3OC(=O)c3ccccc3)c12` (stereo not given), for which the EC50 was over 200 µM and the IC50 was over 200 µM.

With `CN(C)/C=N\c1nncc2[nH]cnc12`, the EC50 is over 200 µM and the half-inhibitory concentration (IC50) amounted to 15.1 µM. On the same counts, the results for `O=C1C(=Cc2ccccc2O)N=C(c2ccccc2)N1n1c(-c2ccccc2)nc2ccccc2c1=O` are over 200 µM and 10.2 µM.

Turning to `CC1(COc2ccccc2OCC2(C)CO2)CO1` (stereo not given), the EC50 is over 1000 µM and the IC50 worked out at 16.6 µM. Regarding `O=C1N/C(=C\c2ccccc2)C(=O)N1CN1CCCC1`, the EC50 is over 200 µM and the half-maximal inhibitory concentration (IC50) amounted to 115 µM.

For `O=C(O)CCC(=O)NNC(=O)CCC(=O)O`, the EC50 was over 155 µM and the IC50 is over 155 µM. On to `COC(=O)C1(C)C=CC(=O)C2(C)C1C(O)C1OC3CC(c4ccoc4)C(C)=C3C1(C)C2CC(=O)O` (stereo not given), for which the EC50 was over 490 µM and the IC50 is over 490 µM. For the compound `Cc1cc(NS(=O)(=O)c2ccc(N=c3c4ccccc4n(-c4ccccc4)c4ccccc34)cc2)no1`, the outcome was inactive.

In the case of `C#CCn1c2c(c3ccccc3c1=O)C(=O)c1ccccc1-2`, the EC50 is over 63.1 µM and the IC50 is over 63.1 µM. For the compound `N/C=N/S(=O)(=O)c1ccc(NC(=O)COC(=O)c2cccc3c(=O)c4ccccc4[nH]c23)cc1`, the result was inactive. For `CC1(CCC(=O)c2ccc3c(c2)OCO3)OCCO1`, the EC50 was over 97.7 µM and the IC50 was over 97.7 µM. On to `Cc1cc2c(cc1C(=O)CCC(=O)O)CC1(C2)Cc2cc(C)c(C(=O)CCC(=O)O)cc2C1`, for which the EC50 is over 200 µM and the concentration for half-maximal inhibition (IC50) was over 200 µM.

As for `C[N+]12CCCCC1CC2` (stereo not given), the EC50 is 47.9 µM and the 50% inhibitory concentration (IC50) was determined as 355 µM. For `Cc1ccc(Oc2ccccc2N)cc1`, the outcome was inactive. On the same count and under the same terms, as for `CCCCCCCCCCCCCC(=O)OC1C(C)C2(O)C(C=C(CO)CC3(O)C(O)C(C)=CC32)C2C(C)(C)C12OC(C)=O` (stereo not given), the entry is “active”. As for `N#Cc1ncn(-c2ccccc2)c1N`, the EC50 is over 200 µM and the IC50 is over 200 µM.

Consider `O=[n+]1c2c(n([O-])c3ccc4ccccc4c31)-c1cccc3cccc-2c13`, for which the EC50 was over 100 µM and the IC50 was over 100 µM. For `CN(C)CCCNC(=O)c1cc(NC(=O)c2cc(NC(=O)c3cc(NC(=O)c4ccc(C(=O)Nc5cc(C(=O)Nc6cc(C(=O)Nc7cc(C(=O)NCCCN(C)C)n(C)c7)n(C)c6)n(C)c5)nc4)cn3C)cn2C)cn1C`, the EC50 was 5.37 µM and the half-inhibitory concentration (IC50) was over 100 µM. On the same counts, the results for `Cc1nnc(N/N=C(/C(=O)C(C#N)c2ccc(Cl)cc2)C(C#N)c2ccc(Cl)cc2)n1N` (stereo not given) are over 537 µM and 91.2 µM. On the same counts, the results for `c1c[nH]c(C23C4C5C6C4C2C6C53)n1` (stereo not given) are over 200 µM and over 200 µM. Regarding `O=C1NC(=O)C(=Cc2ccccc2F)C(=O)N1`, the EC50 is over 1070 µM and the IC50 was over 1070 µM. Take `CN(C)c1ccc(-c2nc(N)nc3c2CCCC3)cc1`: the EC50 is over 37.2 µM and the IC50 was over 37.2 µM. As for `CC(C)=COS(=O)(=O)C(F)(F)F`, the EC50 is over 200 µM and the IC50 is 110 µM.

As for `CC(C)(C1=NC(C(C)(C)C)CO1)C1=N[C@@H](C(C)(C)C)CO1` (stereo not given in full), the EC50 is over 251 µM and the IC50 was over 251 µM. As for `CC[C@](O)(C(=O)O)c1cc2n(c(=O)c1CO)Cc1cc3ccccc3nc1-2`, the EC50 is over 0.1 µM and the IC50 is 0.012 µM. The like results for `c1csc(-c2ccc(-c3ccc(-c4ccc(-c5cccs5)s4)s3)s2)c1` were, in that order, over 200 µM and over 200 µM.

For `O=C(NCCCl)Nc1ccc(S(=O)(=O)c2ccc([N+](=O)[O-])cc2)cc1`, the EC50 was over 200 µM and the IC50 turned out to be 16.2 µM. Consider `O=C1Nc2n[nH]c(=S)n2NC12c1ccccc1-c1ccccc12`, for which the EC50 was over 200 µM and the IC50 is over 100 µM. Take `CC1=C(c2cc(C(=O)Nc3ccc(Cl)c(Cl)c3)nc(N)n2)Sc2ccccc2N1`: the EC50 is over 81.3 µM and the concentration for half-maximal inhibition (IC50) is over 81.3 µM.

In the case of `COc1ccc(C2SC(N)=Nc3c2c(C)nn3C(=O)Cc2ccccc2)cc1` (stereo not given), the EC50 was 91.2 µM and the 50% inhibitory concentration (IC50) is 355 µM.

These data come from PubChem BioAssay AID179 (DTP/NCI, 2004).
